These results are taken from patent US9365522B2, “Pyrazole amide derivative” (AMGEN INC., priority 2015, dated 2016).

In this experiment the target is T1, human RORγ-LBD (Homo sapiens, UniProt P51449).
T1 construct: made in house; host or cells: E. coli (BL-21)
T1 sequence (P51449 262-518): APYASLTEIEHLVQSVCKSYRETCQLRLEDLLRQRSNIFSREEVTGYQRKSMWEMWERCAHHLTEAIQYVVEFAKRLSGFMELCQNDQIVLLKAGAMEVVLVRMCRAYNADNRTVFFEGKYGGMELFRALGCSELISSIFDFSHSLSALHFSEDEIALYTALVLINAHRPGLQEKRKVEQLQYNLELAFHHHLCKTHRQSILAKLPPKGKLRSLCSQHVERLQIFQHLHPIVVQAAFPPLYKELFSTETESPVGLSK
As to the kind of experiment: ROR gamma coactivator peptide recruitment Alphascreen assay (RORγ-LBD binding to GRIP1 coactivator peptide). The format is biochemical. As to conditions: 5 nM human RORγ-LBD, 30 nM 7-β-hydroxycholesterol, 50 nM biotinylated GRIP1 coactivator peptide, overnight incubation at room temperature; read-out: result (pIC50, RORγ coactivator peptide recruitment Alphascreen assay) (converted). The essentials: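 His/Flag-tagged human RORγ-LBD (aa 262-518, E. coli-expressed, 5 nM) with agonist 7-β-hydroxycholesterol (30 nM) and biotinylated GRIP1 LXXLL peptide (50 nM) in HEPES pH 7.4 buffer, 2.5% DMSO. Compound 1-in-2 dilutions; Alphascreen bead signal read after overnight incubation at room temperature; pIC50 calculated.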
With `COc1ncc(Cl)c(C(=O)CN(CC(C)(C)C)C(=O)c2cnn([C@H]3CC[C@](C)(C(=O)O)CC3)c2C(F)(F)F)c1Cl` [Example 753, trans-4-(4-((2-(3,5-dichloro-2-methoxy-4-pyridinyl)-2-oxoethyl)(2,2-dimethylpropyl)carbamoyl)-5-(trifluoromethyl)-1H-pyrazol-1-yl)-1-methylcyclohexanecarboxylic acid], the IC50 was 25.1 nM.
The value for `O=C(O)C[C@H]1CC[C@H](n2ncc(C(=O)N(CC(=O)c3c(Cl)cncc3Cl)Cc3cc(F)cc(F)c3)c2C(F)(F)F)CC1` [Example 755, (trans-4-(4-((2-(3,5-dichloro-4-pyridinyl)-2-oxoethyl)(3,5-difluorobenzyl)carbamoyl)-5-(trifluoromethyl)-1H-pyrazol-1-yl)cyclohexyl)acetic acid] was 2.34 nM.
The value for `C[C@@H]1C[C@@H](n2ncc(C(=O)N(CC(=O)c3c(Cl)cncc3Cl)CC3CC(C)(C)C3)c2C(F)(F)F)CC[C@@H]1C(=O)O` [Example 756, (1S,2R,4S)-4-(4-((2-(3,5-dichloro-4-pyridinyl)-2-oxoethyl)((3,3-dimethylcyclobutyl)methyl)carbamoyl)-5-(trifluoromethyl)-1H-pyrazol-1-yl)-2-methylcyclohexanecarboxylic acid] was 2.57 nM; that for `Cc1cc(C)c(C(=O)CN(C(=O)c2cnn([C@H]3CC[C@](C)(C(=O)O)CC3)c2C(F)(F)F)[C@H]2C[C@@H]3[C@H](C2)C3(C)C)c(Cl)n1` [Example 757, trans-4-(4-((2-(2-chloro-4,6-dimethyl-3-pyridinyl)-2-oxoethyl)((1R,3r,5S)-6,6-dimethylbicyclo[3.1.0]hex-3-yl)carbamoyl)-5-(trifluoromethyl)-1H-pyrazol-1-yl)-1-methylcyclohexanecarboxylic acid] was 7.94 nM; that for `Cc1ncc(Cl)c(C(=O)CN(C(=O)c2cnn([C@H]3CC[C@](C)(C(=O)O)CC3)c2C(F)(F)F)[C@H]2C[C@@H]3[C@H](C2)C3(C)C)c1Cl` [Example 758, trans-4-(4-((2-(3,5-dichloro-2-methyl-3-pyridinyl)-2-oxoethyl)((1R,3r,5S)-6,6-dimethylbicyclo[3.1.0]hex-3-yl)carbamoyl)-5-(trifluoromethyl)-1H-pyrazol-1-yl)-1-methylcyclohexanecarboxylic acid] was 3.55 nM.
The value for `CC1(CN(CC(=O)c2c(Cl)cccc2Cl)C(=O)c2cnn([C@H]3CC[C@](C)(C(=O)O)CC3)c2C(F)(F)F)CC1` [Example 759, trans-4-(4-((2-(2,6-dichlorophenyl)-2-oxoethyl)((1-methylcyclopropyl)methyl)carbamoyl)-5-(trifluoromethyl)-1H-pyrazol-1-yl)-1-methylcyclohexanecarboxylic acid] was 3.72 nM; that for `CC1(CN(CC(=O)c2c(Cl)cccc2Cl)C(=O)c2cnn([C@H]3CC[C@](C)(C(=O)O)CC3)c2C(F)(F)F)CCC1` [Example 760, trans-4-(4-((2-(2,6-dichlorophenyl)-2-oxoethyl)((1-methylcyclobutyl)methyl)carbamoyl)-5-(trifluoromethyl)-1H-pyrazol-1-yl)-1-methylcyclohexanecarboxylic acid] was 2.4 nM.
In the case of `Cc1cc(Cl)c(C(=O)CN(Cc2cc(F)cc(F)c2)C(=O)c2cnn([C@H]3CC[C@@H](C(=O)O)CC3)c2C(F)(F)F)c(Cl)n1` [Example 761, cis-4-(4-((2-(2,4-dichloro-6-methyl-3-pyridinyl)-2-oxoethyl)(3,5-difluorobenzyl)carbamoyl)-5-(trifluoromethyl)-1H-pyrazol-1-yl)cyclohexanecarboxylic acid], the IC50 is 7.94 nM.
The value for `Cc1cc(Cl)c(C(=O)CN(Cc2cc(F)cc(F)c2)C(=O)c2cnn([C@H]3CC[C@@](C)(C(=O)O)CC3)c2C(F)(F)F)c(Cl)n1` [Example 762, trans-4-(4-((2-(2,4-dichloro-6-methyl-3-pyridinyl)-2-oxoethyl)(3,5-difluorobenzyl)carbamoyl)-5-(trifluoromethyl)-1H-pyrazol-1-yl)-1-methylcyclohexanecarboxylic acid] was 5.37 nM; that for `CC1(C)[C@@H]2C[C@H](N(CC(=O)c3c(Cl)ccc(F)c3Cl)C(=O)c3cnn([C@H]4CC[C@](C)(C(=O)O)CC4)c3C(F)(F)F)C[C@@H]21` [Example 763, trans-4-(4-((2-(2,6-dichloro-3-fluorophenyl)-2-oxoethyl)((1R,3r,5S)-6,6-dimethylbicyclo[3.1.0]hex-3-yl)carbamoyl)-5-(trifluoromethyl)-1H-pyrazol-1-yl)-1-methylcyclohexanecarboxylic acid] was 1.62 nM.
The value for `CC(C)(C)CN(CC(=O)c1c(Cl)ccc(F)c1Cl)C(=O)c1cnn([C@H]2CC[C@](C)(C(=O)O)CC2)c1C(F)(F)F` [Example 764, trans-4-(4-((2-(2,6-dichloro-3-fluorophenyl)-2-oxoethyl)(2,2-dimethylpropyl)carbamoyl)-5-(trifluoromethyl)-1H-pyrazol-1-yl)-1-methylcyclohexanecarboxylic acid] was 4.37 nM; that for `CC(C)CCN(CC(=O)c1c(Cl)cncc1Cl)C(=O)c1cnn([C@H]2C[C@@H]3[C@H](C2)[C@@H]3C(=O)O)c1C(F)(F)F` [Example 765, (1R,3r,5S,6r)-3-(4-((2-(3,5-dichloro-4-pyridinyl)-2-oxoethyl)(3-methylbutyl)carbamoyl)-5-(trifluoromethyl)-1H-pyrazol-1-yl)bicyclo[3.1.0]hexane-6-carboxylic acid] was 245 nM.
As to `C[C@@H]1C[C@@H](n2ncc(C(=O)N(CCC(F)(F)F)CC(=O)c3c(Cl)cncc3Cl)c2C(F)(F)F)CC[C@@H]1C(=O)O` [Example 766, (1S,2R,4S)-4-(4-((2-(3,5-dichloro-4-pyridinyl)-2-oxoethyl)(3,3,3-trifluoropropyl)carbamoyl)-5-(trifluoromethyl)-1H-pyrazol-1-yl)-2-methylcyclohexanecarboxylic acid], the IC50 is 32.4 nM.
The value for `C[C@H]1C[C@H](n2ncc(C(=O)N(CCC(F)(F)F)CC(=O)c3c(Cl)cncc3Cl)c2C(F)(F)F)CC[C@H]1C(=O)O` [Example 767, (1R,2S,4R)-4-(4-((2-(3,5-dichloro-4-pyridinyl)-2-oxoethyl)(3,3,3-trifluoropropyl)carbamoyl)-5-(trifluoromethyl)-1H-pyrazol-1-yl)-2-methylcyclohexanecarboxylic acid] was 372 nM.
The figure for `Cc1ncc(Cl)c(C(=O)CN(Cc2cc(F)cc(F)c2)C(=O)c2cnn([C@H]3CC[C@](C)(C(=O)O)CC3)c2C(F)(F)F)c1Cl` [Example 768, trans-4-(4-((2-(3,5-dichloro-2-methyl-4-pyridinyl)-2-oxoethyl)(3,5-difluorobenzyl)carbamoyl)-5-(trifluoromethyl)-1H-pyrazol-1-yl)-1-methylcyclohexanecarboxylic acid] is 3.98 nM.
The value for `O=C(CN(CC1(F)CCCC1)C(=O)c1cnn([C@H]2C[C@@H]3[C@H](C2)[C@@H]3C(=O)O)c1C(F)(F)F)c1c(Cl)cccc1Cl` [Example 769, (1R,3r,5S,6s)-3-(4-((2-(2,6-dichlorophenyl)-2-oxoethyl)((1-fluorocyclopentyl)methyl)carbamoyl)-5-(trifluoromethyl)-1H-pyrazol-1-yl)bicyclo[3.1.0]hexane-6-carboxylic acid] was 18.6 nM; that for `CC(C)(C)CN(CC(=O)c1c(Cl)cncc1Cl)C(=O)c1cnn([C@H]2C[C@@H]3[C@H](C2)[C@@H]3C(=O)O)c1C(F)(F)F` [Example 770, (1R,3r,5S,6s)-3-(4-((2-(3,5-dichloro-4-pyridinyl)-2-oxoethyl)(2,2-dimethylpropyl)carbamoyl)-5-(trifluoromethyl)-1H-pyrazol-1-yl)bicyclo[3.1.0]hexane-6-carboxylic acid] was 42.7 nM.
As to `CC(C)(C)CN(CC(=O)c1c(Cl)cncc1Cl)C(=O)c1cnn([C@H]2C[C@]3(C[C@H](C(=O)O)C3)C2)c1C(F)(F)F` (stereo partly drawn) [Example 771, (4r)-6-(4-((2-(3,5-dichloro-4-pyridinyl)-2-oxoethyl)(2,2-dimethylpropyl)carbamoyl)-5-(trifluoromethyl)-1H-pyrazol-1-yl)spiro[3.3]heptane-2-carboxylic acid], the IC50 is 6.31 nM.
The figure for `C[C@H](C(=O)O)[C@H]1C[C@H](n2ncc(C(=O)N(CC(=O)c3c(Cl)cccc3Cl)[C@H]3C[C@@H]4[C@H](C3)C4(C)C)c2C(F)(F)F)C1` [Example 772, (S)-2-((1R,3S)-3-(4-((2-(2,6-dichlorophenyl)-2-oxoethyl)((1R,3r,5S)-6,6-dimethylbicyclo[3.1.0]hexan-3-yl)carbamoyl)-5-(trifluoromethyl)-1H-pyrazol-1-yl)cyclobutyl)propanoic acid] is 3.72 nM.
The value for `C[C@@H]1C[C@@H](n2ncc(C(=O)N(CC(=O)c3c(Cl)cncc3Cl)C[C@@H]3CCC(C)(C)O3)c2C(F)(F)F)CC[C@@H]1C(=O)O` [Example 774, (1S,2R,4S)-4-(4-((2-(3,5-dichloro-4-pyridinyl)-2-oxoethyl)(((2S)-5,5-dimethyltetrahydro-2-furanyl)methyl)carbamoyl)-5-(trifluoromethyl)-1H-pyrazol-1-yl)-2-methylcyclohexanecarboxylic acid] was 21.9 nM; that for `CC1(CN(CC(=O)c2c(Cl)cncc2Cl)C(=O)c2cnn([C@H]3CC[C@H](CC(=O)O)CC3)c2C(F)(F)F)CCC1` [Example 775, (trans-4-(4-((2-(3,5-dichloro-4-pyridinyl)-2-oxoethyl)((1-methylcyclobutyl)methyl)carbamoyl)-5-(trifluoromethyl)-1H-pyrazol-1-yl)cyclohexyl)acetic acid] was 3.02 nM.
